Laboratory results from patent US20080312085A1, “Pesticidal Compositions” (priority 2005, published 2008).

Tests used:
[1] = tested on: Cotton Aphid (Aphis gossypii); experiment: Cotton aphid test, cotyledons of infested cotton plants dipped; format: in vivo; details: 120 h, aphid mortality determined after 5 days, read-out: mortality in comparison with untreated controls
Excerpt: B.1 Cotton Aphid (Aphis gossypii)
(§1) The active compounds were formulated in 50:50 acetone:water and 100 ppm Kinetica™ surfactant.
(§2) Cotton plants in the cotyledon stage (variety ‘Delta Pine’) are infested with approximately 100 laboratory-reared aphids by placing infested leaf sections on top of the test plants. The leaf sections are removed after 24 hr. The cotyledons of the intact plants are dipped into gradient solutions of the test compound. Aphid mortality on the treated plants, relative to mortality on check plants, is determined after 5 days.

[2] = tested on: Green Peach Aphid (Myzus persicae); experiment: Green peach aphid test, leaves of infested pepper plants dipped; format: in vivo; details: 120 h, aphid mortality determined after 5 days, read-out: mortality in comparison with untreated controls
Excerpt: B.2 Green Peach Aphid (Myzus persicae)
as §1
as §2, with “Pepper” for “Cotton”, “2nd leaf-pair” for “cotyledon”, “‘California Wonder’)” for “‘Delta Pine’)”, “40” for “100”, “leaves” for “cotyledons”

[3] = tested on: Vetch Aphid (Megoura viciae); experiment: Vetch aphid test, sprayed bean leaf disks in microtiterplates; format: in vivo; details: foliar, 144 h, bean leaf disks sprayed with 2.5 μl, 6 days, read-out: mortality in comparison with untreated controls
Experimental: B.4 Vetch Aphid (Megoura viciae)
The active compounds were formulated in 1:3 DMSO:water. Bean leaf disks were placed into microtiterplates filled with 0.8% agar-agar and 2.5 ppm OPUS™. The leaf disks were sprayed with 2.5 μl of the test solution and 5 to 8 adult aphids were placed into the microtiterplates which were then closed and kept at 22-24° C. and 35-45% under fluorescent light for 6 days. Mortality was assessed on the basis of vital, reproduced aphids. Tests were replicated twice.

[4] = tested on: Cowpea Aphid (aphis craccivora); experiment: Cowpea aphid test, colonized potted cowpea plants sprayed; format: in vivo; details: population reduction recorded after 24, 72 and 120 hours, read-out: mortality in comparison with untreated controls
Experimental: B.3 Cowpea Aphid (aphis craccivora)
The active compounds were formulated in 50:50 acetone:water. Potted cowpea plants colonized with 100-150 aphids of various stages were sprayed after the pest population has been recorded. Population reduction was recorded after 24, 72, and 120 hours.

Row | SMILES | mortality at 300 ppm [1] [%] | mortality at 300 ppm [2] [%] | mortality at 2500 ppm [3] [%] | mortality at 300 ppm [4] [%] | melting point [°C]
1 | c1ccc(C(Cc2cccs2)NC2=NCCS2)cc1 (centres unmarked) [compound 39] | > 80 | > 80 |  |  | 
2 | c1ccc(C(Cc2ccco2)NC2=NCCS2)cc1 (centres unmarked) [compound 38] | > 80 | > 80 |  |  | 
3 | Cc1cc(C)nc(CC(NC2=NCCS2)c2cccc(Cl)c2Cl)c1 (centres unmarked) [compound 6] | > 80 | > 80 | > 80 | > 80 | 
4 | Clc1cccc(C(Cc2cccnc2)NC2=NCCS2)c1Cl (centres unmarked) [compound 13] |  | > 80 |  |  | 
5 | Cc1ccc(CC(NC2=NCCS2)c2cccc(Cl)c2Cl)nc1 (centres unmarked) [compound 3] | > 80 | > 80 |  | > 80 | 
6 | Clc1cccc(C(Cc2nccc3ccccc23)NC2=NCCS2)c1Cl (centres unmarked) [compound 8] | > 80 | > 80 | > 80 | > 80 | 
7 | Clc1cccc(C(Cc2cc(Cl)c3ccccc3n2)NC2=NCCS2)c1Cl (centres unmarked) [Compound Example 12] |  |  |  |  | 71 to 73
8 | Cc1nc(CC(NC2=NCCS2)c2cccc(Cl)c2Cl)oc1C (centres unmarked) [compound 31] |  |  |  | > 80 | 
9 | Clc1cccc(C(Cc2cn(Cc3ccccc3)nn2)NC2=NCCS2)c1Cl (centres unmarked) [Compound Example 35] |  |  |  |  | 74 to 89
10 | Clc1cccc(C(Cc2ccc3ccccc3n2)NC2=NCCS2)c1Cl (centres unmarked) [compound 9] | > 80 | > 80 | > 80 | > 80 | 
11 | Clc1cccc(C(Cc2ccccn2)NC2=NCCS2)c1Cl (centres unmarked) [compound 1] | > 80 | > 80 |  | > 80 | 
12 | Cc1cccc(CC(NC2=NCCS2)c2cccc(Cl)c2Cl)n1 (centres unmarked) [compound 4] | > 80 | > 80 |  | > 80 | 
13 | CCc1cc(CC(NC2=NCCS2)c2cccc(Cl)c2Cl)on1 (centres unmarked) [compound 24] | > 80 | > 80 |  |  | 
14 | Cc1cc(CC(NC2=NCCS2)c2cccc(Cl)c2Cl)on1 (centres unmarked) [compound 23] |  |  |  | > 80 | 
